Where “and” joins values, the source holds several entries; their conditions need not be identical. Equal entries are not always repeated.
Assays:
[1] = kH=Ca/Pg, concentration in water over partial pressure in the gas phase; cited from earlier work
S. cerevisiae CBS 8066 [2] = experiment: Anoxic chemostat fermentation under glucose limitation in absence or presence of acetaldehyde; assay type: cell-based, Saccharomyces cerevisiae; settings: for Δ ethanol produced / Δ glycerol produced: relative to steady state 1 without acetaldehyde; for acetaldehyde concentration in chemostat sample / acetic acid concentration in chemostat sample / ethanol concentration in chemostat sample / glucose concentration in chemostat sample / glycerol concentration in chemostat sample / pyruvic acid concentration in chemostat sample / succinic acid concentration in chemostat sample: dilution rate 0.11 h^−1, duplicate samples A and B
Procedure: (§1) The column was eluted at 60° C. with 0.5 g/l H2S04 at a flow rate of 0.6 ml min^−1 . Detection was by means of a Waters 2410 refractive-index detector and a Waters 2487 UV detector. Initial and final glycerol concentrations were further determined using an enzymatic determination kit (Rbiopharm AG, Darmstadt, Germany).
The mineral salts medium employed was based on standard media (Bruinenberg et al. 1983. Journal of General Microbiology 129:965-971; Verduin et al 1990. Journal of General Microbiology 136:395-403). It contained the following per liter of demineralized water: (NH4)2SO4, 5 g; KH2PO4, 3 g; MgSO4.7H2O, 0.5 g; EDTA, 15 mg; ZnSO4.7H20, 4.5 mg; CoCl2 6H2O, 0.3 mg; MnCl2 4H20, 1 mg; CuSO4 5H20, 0.3 mg; CaCl2. 2H20, 4.5 mg; FeSO4 7H20, 3 mg; Na2MoO4. 2H2O, 0.4 mg; H3BO3, 1 mg; KI, 0.1 mg; and 0.025 ml silicone antifoam (BDH). After heat sterilization at 120° C. and cooling, filter sterilized vitamins were added: biotin, 0.05 mg; calcium pantothenate, 1 mg; nicotinic acid, 1 mg; inositol, 25 mg; thiamin.HCl, 1 mg; pyridoxine.HCl, 1 mg; and para-aminobenzoic acid, 0.2 mg. Ergosterol and Tween 80 were dissolved in pure ethanol and steamed at 100° C. for 10 minutes before they were added to the medium to give final concentrations of 10 and 400 mg/l, respectively, and a final concentration of 38 mM ethanol. […] The sterilized glucose solution was added to the sterile mineral salts medium to give the required final concentration.
Anoxic chemostat cultivation of the yeasts was done at 30° C. in a fermenter with a working volume of 1 liter and at a stirring speed of 600 r.p.m. The pH was automatically controlled at pH=5 by titration with 2 M KOH. The condenser at the outlet of the gas stream was connected to a cryostat and cooled at 2° C. The condensate was returned into the fermentation vessel. The tubing on the entire fermenter set-up (including medium- and waste-reservoirs) consisted of material (Norprene tubing) that is very poorly permeable for oxygen. The fermenter and the medium reservoir (with a magnetic stirrer) were sparged with certificated ultra-pure nitrogen prior to the addition of acetaldehyde to the reservoir.
Strain S. cerevisiae CBS 8066 was cultivated in chemostat culture at a dilution rate of 0.11 h^−1. The glucose concentration in the medium reservoir was […] in each run. Three separate steady states were obtained in either the absence or presence of acetaldehyde. The effect of the aldehyde on the fermentation was tested by adding the compound to the medium reservoir after a steady state situation in its absence (medium and samples “1”) had been established. […] In each of the three steady states (after 3-5 volume changes), the fermentation medium in the fermenter was analyzed for various compounds as summarized in Tables 1 and 2.

S. cerevisiae CBS 8066 [3] = experiment: Small-scale batch cultivation testing the effect of acetaldehyde on formation of ethanol and glycerol; assay type: cell-based, Saccharomyces cerevisiae; settings: 1.76 mM acetaldehyde in, single addition at start; 280 mM glucose at start; 90 minutes of incubation
Procedure: as §1
Carbon dioxide was allowed to escape from the bottles by inserting a needle in the septum of the cap. The bottles were incubated stationary. A sample per bottle was taken at the start of the experiment and after 90 minutes of incubation.
The initial cell concentration was 0.45 g/l dry biomass. Acetaldehyde was supplied to the bottle in a single addition at the start of the incubation. In a separate control run, no acetaldehyde was supplied.

Ethanol Red strain = experiment: Batch fermentation testing acetaldehyde additions at high ethanol concentrations; assay type: cell-based; settings: acetaldehyde added once ethanol had reached 80 g/l, controlled between 0.06 and 0.1 g/l; 180 minutes without acetaldehyde
Procedure: The stirring speed was set at 300 r.p.m. and the pH of the mineral salts medium containing 280 g/l glucose was kept at 5 by adding 2 M NaOH. The condenser at the outlet of the gas stream was connected to a cryostat and cooled at 2° C. The condensate was returned into the fermentation vessel. […] Sampling was from a loop kept at 35° C. for circulating gas from the headspace. […] The solution entered in the aqueous phase via a needle at the outlet of the tubing.
The mineral salts medium was employed with the addition of yeast extract at 1 g/l. The initial cell concentration was 0.5 g/l dry biomass. Air was supplied to the headspace of the fermenter at 15 ml/min during the first 2 hours of cultivation after which conditions were kept anoxic. Glucose was added initially at 230 g/l. […] The concentration was monitored from the headspace and controlled in the fermenter liquid between 0.06 and 0.1 g/l. In a control experiment, no acetaldehyde was supplied.

S. cerevisiae CEN.PK2-1C = experiment: Evolutionary engineering for enhanced tolerance to acetaldehyde (oxic batch cultivation); assay type: cell-based, Saccharomyces cerevisiae; settings: batch system; compared to the parent strain in the absence of acetaldehyde
Procedure: The flasks contained 20 ml mineral salts medium supplied with glucose (12 g/l) and they were incubated on a rotary shaker at 400 r.p.m. Air could enter in the flasks via cotton plugs.
The organisms were cultivated under oxic conditions in a batch-wise mode. The initial pH of the mineral salts medium was set at 6 by titrating with KOH and glucose was added at 12 g/l. […] The newly acquired strains retained their ability to withstand higher acetaldehyde levels also when cultivating them anoxically in mineral salts medium with glucose and for prolonged periods of times. This subculturing was by taking an aliquot of 0.5 ml from a culture that had consumed all glucose and by transferring this inoculum to fresh medium (50 ml).

[4] = system: lactic acid bacteria, belonging to Lactobacillus, Pediococcus, Leuconostoc and Weissella; experiment: Semi-anoxic co-culture of yeast with lactic acid bacteria at increasing acetaldehyde concentrations; assay type: cell-based; settings: increasing concentrations of acetaldehyde in subsequent batches; without acetaldehyde the bacteria remained present
Procedure: Media for plates (1.5% agar) for S. cerevisiae were the mineral salts medium supplement with 2% glucose and for lactic acid bacteria the de Man, Rogosa and Sharpe (MRS) medium. Cycloheximide (0.1 g/l) was added to the plates in case mixed cultures of yeast and lactic acid bacteria were studied.
Semi-anoxic batch cultivation of the yeasts together with lactic acid bacteria was done at 30° C. in 100-ml Erlenmeyer flasks. The flasks contained 50 ml mineral salts medium supplied with glucose (12 g/l) and they were incubated without shaking. Air could enter in the flasks via cotton plugs.
S. cerevisiae CEN.PK2-1C was subjected to evolutionary engineering analogous to the procedure described above, except that now semi-anoxic conditions were employed. Eight strains of lactic acid bacteria, belonging to Lactobacillus, Pediococcus, Leuconostoc and Weissella, were inoculated as well. The dynamics of the quantitative growth of the 9 organisms thus present as co-culture was followed during the procedure of evolutionary engineering. During each successive transfer step, the suspension after growth was plated on media that allow growth of either S. cerevisiae or of the 8 strains of lactic acid bacteria. […] Under this circumstance, the lactic acid bacteria remained present in the system.

Lactococcus lactis = settings: cited from earlier work
[5] = Steady state 2 (6 mM acetaldehyde supplied)
[6] = Steady state 3 (15 mM acetaldehyde supplied)
[7] = steady state 2, 6 mM acetaldehyde supplied
[8] = steady state 3, 15 mM acetaldehyde supplied

In the case of O=O [oxygen], the “Henry's law constant kH” value [1] is given as 1.3*10^−3 M/atm.

In the case of CCO [ethanol], the “Henry's law constant kH” value [1] is given as “approximately 200 M/atm”.

Compound CC=O [acetaldehyde] has an acetaldehyde consumed (S. cerevisiae CBS 8066 [2]; [5]) of -6 mM, a glucose consumed (S. cerevisiae CBS 8066 [2]; [5]) of 136 mM and a Δ ethanol produced (S. cerevisiae CBS 8066 [2]; [5]) of 15 mM. For the same compound, the Δ glycerol produced (S. cerevisiae CBS 8066 [2]; [5]) was -6 mM, the acetaldehyde consumed (S. cerevisiae CBS 8066 [2]; [6]) was -16 mM and the glucose consumed (S. cerevisiae CBS 8066 [2]; [6]) was 136 mM. For the same compound, the Δ ethanol produced (S. cerevisiae CBS 8066 [2]; [6]) was 27 mM, the Δ glycerol produced (S. cerevisiae CBS 8066 [2]; [6]) was -11 mM and the “acetaldehyde concentration in chemostat sample” value (S. cerevisiae CBS 8066 [2]; [7]) was 0.03 mM. The “acetic acid concentration in chemostat sample” value (S. cerevisiae CBS 8066 [2]; [7]) was 0.64 mM and 0.54 mM, the “ethanol concentration in chemostat sample” value (S. cerevisiae CBS 8066 [2]; [7]) was 243.13 mM and 244.74 mM and the “glucose concentration in chemostat sample” value (S. cerevisiae CBS 8066 [2]; [7]) was 0.48 mM and 0.46 mM. For the same compound, the “glycerol concentration in chemostat sample” value (S. cerevisiae CBS 8066 [2]; [7]) was 9.47 mM and 9.60 mM, the “pyruvic acid concentration in chemostat sample” value (S. cerevisiae CBS 8066 [2]; [7]) was 0.56 mM and 0.51 mM and the “succinic acid concentration in chemostat sample” value (S. cerevisiae CBS 8066 [2]; [7]) was 0.43 mM and 0.45 mM. For the same compound, the “acetaldehyde concentration in chemostat sample” value (S. cerevisiae CBS 8066 [2]; [8]) was 0.04 mM, the “acetic acid concentration in chemostat sample” value (S. cerevisiae CBS 8066 [2]; [8]) was 0.78 mM and 0.69 mM and the “ethanol concentration in chemostat sample” value (S. cerevisiae CBS 8066 [2]; [8]) was 255.35 mM and 255.25 mM. For the same compound, the “glucose concentration in chemostat sample” value (S. cerevisiae CBS 8066 [2]; [8]) was 0.44 mM and 0.48 mM, the “glycerol concentration in chemostat sample” value (S. cerevisiae CBS 8066 [2]; [8]) was 4.04 mM and 4.02 mM and the “pyruvic acid concentration in chemostat sample” value (S. cerevisiae CBS 8066 [2]; [8]) was 0.48 mM. For the same compound, the “succinic acid concentration in chemostat sample” value (S. cerevisiae CBS 8066 [2]; [8]) was 0.45 mM and 0.50 mM, the Acetaldehyde at end (S. cerevisiae CBS 8066 [3]) was 1.01 mM and the Ethanol at end (S. cerevisiae CBS 8066 [3]) was 6.67 mM. The Glycerol at end (S. cerevisiae CBS 8066 [3]) was 0.58 mM, the “time required to reach 98 g/l of ethanol in the liquid” value (Ethanol Red strain) was 158 min and the “acetaldehyde concentration in whose presence the evolved strain grew without a noticeable change in growth rate” value (S. cerevisiae CEN.PK2-1C) was 0.5 g/L. For the same compound, the “fate of the lactic acid bacteria in the co-culture” value [4] was “disappeared”, the “concentration resulting in a reduction of the growth rate by 50%” value (Lactococcus lactis) was 0.4 kg/m^3 and the “minimum inhibitory concentration (MIC)” value (Lactococcus lactis) was 35 mM and 1.5 kg/m^3. The IC50 (Lactococcus lactis; read-out: concentration resulting in a reduction of the growth rate by 50%) was 9 mM and the “Henry's law constant kH” value [1] was 15 M/atm.

Source: patent US20180030482A1 (Moralco B.V., priority 2014, published 2018)
